Measured values from patent US20220119383A1 (Gilead Sciences, Inc., priority 2018, published 2022).
pEC50: −log10 of the molar value.

Molecular target: T1, α4β7 integrin (Homo sapiens, UniProt P13612+P26010)
T1 construct: monitoring the capture of α4β7 integrin expressing cells; endogenous in cells; host or cells: RPMI8866 cells
T1 sequence (P13612 34-1032): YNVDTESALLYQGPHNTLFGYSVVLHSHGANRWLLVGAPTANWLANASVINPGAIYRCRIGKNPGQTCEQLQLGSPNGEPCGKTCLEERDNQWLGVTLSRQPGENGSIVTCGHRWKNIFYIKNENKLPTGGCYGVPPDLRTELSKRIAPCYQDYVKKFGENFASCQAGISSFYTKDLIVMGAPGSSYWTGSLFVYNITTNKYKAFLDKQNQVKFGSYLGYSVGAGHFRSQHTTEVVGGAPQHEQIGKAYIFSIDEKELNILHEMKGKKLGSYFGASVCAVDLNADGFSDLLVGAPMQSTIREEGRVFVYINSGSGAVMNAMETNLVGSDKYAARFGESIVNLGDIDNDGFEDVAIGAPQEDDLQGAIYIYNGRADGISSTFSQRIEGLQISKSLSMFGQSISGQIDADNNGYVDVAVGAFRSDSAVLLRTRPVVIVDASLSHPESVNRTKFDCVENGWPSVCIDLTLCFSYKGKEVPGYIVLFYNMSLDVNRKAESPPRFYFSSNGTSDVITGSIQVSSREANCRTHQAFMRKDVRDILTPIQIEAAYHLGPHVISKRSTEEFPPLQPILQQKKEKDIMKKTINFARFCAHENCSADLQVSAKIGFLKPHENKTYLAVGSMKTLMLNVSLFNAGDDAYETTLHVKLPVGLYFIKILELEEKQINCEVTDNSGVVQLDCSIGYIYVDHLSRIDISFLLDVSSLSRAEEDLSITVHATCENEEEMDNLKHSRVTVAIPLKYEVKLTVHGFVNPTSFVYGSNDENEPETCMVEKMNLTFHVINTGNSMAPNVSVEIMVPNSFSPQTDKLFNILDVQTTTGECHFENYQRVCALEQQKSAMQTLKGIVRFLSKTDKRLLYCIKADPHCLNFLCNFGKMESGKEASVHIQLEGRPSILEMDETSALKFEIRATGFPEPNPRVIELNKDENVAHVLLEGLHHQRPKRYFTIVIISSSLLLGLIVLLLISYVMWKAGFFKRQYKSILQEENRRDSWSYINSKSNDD
T1 sequence (P26010 20-798): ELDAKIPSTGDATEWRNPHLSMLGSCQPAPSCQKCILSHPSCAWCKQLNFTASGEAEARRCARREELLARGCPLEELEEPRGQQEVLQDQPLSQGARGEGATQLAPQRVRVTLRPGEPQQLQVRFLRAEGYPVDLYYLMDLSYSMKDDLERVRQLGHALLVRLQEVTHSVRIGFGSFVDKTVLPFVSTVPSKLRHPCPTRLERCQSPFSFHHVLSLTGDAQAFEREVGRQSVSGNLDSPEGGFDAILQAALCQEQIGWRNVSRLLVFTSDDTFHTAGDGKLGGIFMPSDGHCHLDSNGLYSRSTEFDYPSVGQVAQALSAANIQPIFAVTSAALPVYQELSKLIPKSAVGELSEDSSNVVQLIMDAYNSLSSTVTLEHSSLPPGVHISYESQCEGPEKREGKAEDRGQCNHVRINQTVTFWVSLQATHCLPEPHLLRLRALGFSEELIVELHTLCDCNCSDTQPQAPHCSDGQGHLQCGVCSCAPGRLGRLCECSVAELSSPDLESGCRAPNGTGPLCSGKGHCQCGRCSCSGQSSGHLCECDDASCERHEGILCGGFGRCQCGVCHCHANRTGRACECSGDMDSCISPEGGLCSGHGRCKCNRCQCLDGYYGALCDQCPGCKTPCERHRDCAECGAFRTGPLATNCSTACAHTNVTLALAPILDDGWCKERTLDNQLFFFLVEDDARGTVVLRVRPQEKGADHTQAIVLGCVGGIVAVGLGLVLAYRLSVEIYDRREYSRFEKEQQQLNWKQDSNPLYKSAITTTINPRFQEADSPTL
Experiment: α4β7 integrin cell capture assay
Type: cell-based
Description: The potency of inhibitors in preventing α4β7 integrin interaction with MadCAM-1 was measured by monitoring the capture of α4β7 integrin expressing cells on a recombinant MadCAM-1 extracellular domain-coated plate. […] The plates were then washed with PBS and blocked with 3% BSA for 2 hours before being washed again.
RPM18866 cells were spun down and re-suspended in assay medium (DMEM+0.5% FBS+0.5 mM MnCl2) at a density of 0.5×10^6 cells/mL. […] The plates were incubated at 37° C. for 1 hour. 50 μL of cells were transferred to the blocked, MadCAM-1-coated plates and incubated for 30 minutes at 37° C. […] The plates were incubated for 90 minutes at room temperature. The plates were then washed 3 times with 70 μL of PBS per well and imaged on a Cellomics ArrayScan instrument. The cells that were bound to the plate were counted and plotted against the compound concentration to determine the EC50 of the test compounds.

[1] = Table 1, capture of RPM18866 cells on MadCAM-1 extracellular domain-coated plate
[2] = Table 2, capture of RPM18866 cells on MadCAM-1 extracellular domain-coated plate

Compound | pEC50 [1] | other results
2,6-difluoro-4-(3-(trifluoromethyl)morpholino)benzoic acid [Example 81] | 8.22 | 
Cc1c(-c2ccc(C[C@H](NC(=O)c3c(F)cc(N[C@H](C)C(F)(F)F)cc3F)C(=O)O)c3cccnc23)c(=O)n(C)c2ccc(F)cc12 (atropisomer, axis not shown) [Example 187] |  | pEC50 [2]: 8.96
N#Cc1ccc(-c2ccc(C[C@H](NC(=O)c3c(F)cc(N4CCOC[C@H]4C(F)(F)F)cc3F)C(=O)O)c3cccnc23)c(Cl)c1 (single isomer, unassigned) [Example 83] | 7.48 | 
O=C(N[C@@H](Cc1ccc(-c2cccc3c2OCCO3)c2ncccc12)C(=O)O)c1c(F)cc(NS(=O)(=O)c2ccc(-c3ccnc(F)c3)cc2)cc1F [Example 51] | 8.54 | 
O=C(N[C@@H](Cc1ccc(-c2ncc3ccccc3c2Cl)c2ncccc12)C(=O)O)c1c(F)cccc1F [Example 66, (S)-3-(8-(4-chloroisoquinolin-3-yl)quinolin-5-yl)-2-(2,6-difluorobenzamido)propanoic acid] | 7.72 | 
CC[C@@H](Nc1cc(F)c(C(=O)N[C@@H](Cc2ccc(-c3c(C(F)(F)F)c4cc(F)ccc4n(C)c3=O)c3ncccc23)C(=O)O)c(F)c1)C(F)(F)F [Example 124] | 9.22 | 
CC[C@@H](Nc1cc(F)c(C(=O)N[C@@H](Cc2ccc(-c3c(N4CCC4)cc(C)n(C)c3=O)c3ncccc23)C(=O)O)c(F)c1)C(F)(F)F [Example 184] |  | pEC50 [2]: 9.05
Cc1cc(N2CCOC[C@@H]2C(F)(F)F)cc(F)c1C(=O)N[C@@H](Cc1ccc(-n2c(=O)c3cccnc3n(C)c2=O)c2ncccc12)C(=O)O [Example 402] |  | pEC50 (capture of α4β7 integrin expressing RPM18866 cells on MadCAM-1 extracellular domain-coated plate): 10.00
(S)-3-(8-(2-chloro-4-cyanophenyl)quinolin-5-yl)-2-(2,6-difluoro-4-((R)-3-(trifluoromethyl)morpholino)benzamido)propanoic acid [Example 148] | 7.22 | 

Now from value to compound, other results behind:

pEC50 [1] | Compound | other results
8.72 | COc1cc(F)cc(C(F)(F)F)c1-c1ccc(C[C@H](NC(=O)c2c(F)cccc2F)C(=O)O)c2cccnc12 (single isomer, unassigned) [Example 7] | 
7.38 | COc1cc(F)cc(C(F)(F)F)c1-c1ccc(C[C@H](NC(=O)c2c(F)cccc2F)C(=O)O)c2cccnc12 (single isomer, unassigned) [Example 8] | 
8.33 | N#Cc1ccc(-c2ccc(C[C@H](NC(=O)c3c(F)cc(N4CCOC[C@@H]4C(F)(F)F)cc3F)C(=O)O)c3cccnc23)c(Cl)c1 (single isomer, unassigned) [Example 82] | 
7.84 | N#Cc1ccc(-c2ccc(C[C@H](NC(=O)c3c(F)cc(NC(C4CC4)C(F)(F)F)cc3F)C(=O)O)c3cccnc23)c(Cl)c1 (some centres unmarked) [Example 89] | 
8.92 | CC[C@@H](Nc1cc(F)c(C(=O)N[C@@H](Cc2ccc(-c3cn(C)c(=O)n(C)c3=O)c3ncccc23)C(=O)O)c(F)c1)C(F)(F)F [Example 113, (S)-2-(2,6-difluoro-4-(((R)-1,1,1-trifluorobutan-2-yl)amino)benzamido)-3-(8-(1,3-dimethyl-2,4-dioxo-1,2,3,4-tetrahydropyrimidin-5-yl)quinolin-5-yl)propanoic acid] | 
